target: T1, mGluR5 receptor (Sus scrofa, UniProt I3LUI7); experiment: Affinity for the mGluR5 receptor: displacement of 3[H]-MPEP binding in pig brain homogenate; conditions: 10 μM compound, 5 nM 3[H]-MPEP
T1 construct: 450 μg of protein from brain homogenate are incubated with 5 nM^3[H]-MPEP; from tissue; host or cells: pig brain hemispheres without medulla, cerebellum and pons
Method: II. Method for Determining the Affinity for the mGluR5 Receptor
In each case 450 μg of protein from brain homogenate are incubated with 5 nM^3[H]-MPEP (Tocris, order No. R1212) (MPEP=2-methyl-6-[…]) and the compounds to be investigated (10 μM in the assay) in buffer (as above) in 250 μl incubation mixtures in 96-well microtiter plates at room temperature for 60 min.
The filter plates were then dried at 55° C. for 60 min.

T1 sequence (I3LUI7 19-1212): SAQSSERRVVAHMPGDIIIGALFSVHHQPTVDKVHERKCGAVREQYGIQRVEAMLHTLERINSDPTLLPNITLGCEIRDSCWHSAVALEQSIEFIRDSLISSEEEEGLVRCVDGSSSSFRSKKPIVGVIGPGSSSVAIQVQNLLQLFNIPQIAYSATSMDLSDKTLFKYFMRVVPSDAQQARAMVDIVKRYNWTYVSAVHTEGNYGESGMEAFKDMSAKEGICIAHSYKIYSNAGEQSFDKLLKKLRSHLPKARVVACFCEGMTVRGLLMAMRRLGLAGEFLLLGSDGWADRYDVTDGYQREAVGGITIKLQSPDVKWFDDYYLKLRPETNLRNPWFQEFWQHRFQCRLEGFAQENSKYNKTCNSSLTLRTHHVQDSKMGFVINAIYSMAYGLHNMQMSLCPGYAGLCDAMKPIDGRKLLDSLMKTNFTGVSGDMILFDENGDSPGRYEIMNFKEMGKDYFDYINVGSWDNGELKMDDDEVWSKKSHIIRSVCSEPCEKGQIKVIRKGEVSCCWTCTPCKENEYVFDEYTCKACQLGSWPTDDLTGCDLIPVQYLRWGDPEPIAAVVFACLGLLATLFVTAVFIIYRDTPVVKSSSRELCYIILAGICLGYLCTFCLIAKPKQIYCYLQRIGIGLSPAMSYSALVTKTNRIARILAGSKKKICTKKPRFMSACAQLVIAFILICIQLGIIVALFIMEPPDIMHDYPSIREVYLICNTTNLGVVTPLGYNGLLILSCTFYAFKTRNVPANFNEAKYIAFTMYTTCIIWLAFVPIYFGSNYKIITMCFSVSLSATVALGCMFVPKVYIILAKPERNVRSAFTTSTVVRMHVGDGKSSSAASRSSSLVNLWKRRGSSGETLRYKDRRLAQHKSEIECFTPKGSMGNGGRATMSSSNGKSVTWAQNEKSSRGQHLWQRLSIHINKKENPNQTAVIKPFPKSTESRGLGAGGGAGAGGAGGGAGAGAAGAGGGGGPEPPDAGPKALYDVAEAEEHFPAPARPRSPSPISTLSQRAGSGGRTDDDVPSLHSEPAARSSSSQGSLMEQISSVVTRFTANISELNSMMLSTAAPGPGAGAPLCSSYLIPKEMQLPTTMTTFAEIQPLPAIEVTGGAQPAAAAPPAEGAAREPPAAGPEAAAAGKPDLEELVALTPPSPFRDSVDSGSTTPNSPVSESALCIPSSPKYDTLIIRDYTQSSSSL

| Compound | inhibition at 10 µM [%] | mGluR5 receptor inhibition of the 3[H]-MPEP binding in % (10 μM) [%] |
| --- | --- | --- |
| CCCCC(CC)C(=O)Nc1noc2ccccc12 (stereo not drawn) [Example 85, N-benzo[d]isoxazol-3-yl-2-ethylhexanamide] | 63.2 | – |
| CCC(C)C(=O)Nc1noc2ccccc12 (stereo not drawn) [Example 86, N-benzo[d]isoxazol-3-yl-2-methylbutyramide] | 39.6 | – |
| O=C(Nc1noc2ccccc12)c1c(F)cccc1F [Example 87, N-benzo[d]isoxazol-3-yl-2,6-difluorobenzamide] | 37 | – |
| O=C(Nc1noc2ccccc12)c1ccc(C(F)(F)F)c(F)c1 [Example 88, N-benzo[d]isoxazol-3-yl-3-fluoro-4-trifluoromethylbenzamide] | 30 | – |
| O=C(Nc1noc2ccccc12)c1c(F)ccc(F)c1F [Example 89, N-benzo[d]isoxazol-3-yl-2,3,6-trifluorobenzamide] | 51.1 | – |
| O=C(Nc1noc2ccccc12)c1cccnc1 [Example 90, N-benzo[d]isoxazol-3-ylnicotinamide] | 50.3 | – |
| Cc1cc(C(=O)Nc2noc3ccccc23)no1 [Example 91, 5-methylisoxazole-3-benzo[d]isoxazol-3-ylcarboxamide] | – | 35.00 |
| O=C(Nc1noc2ccccc12)c1csc2ccccc12 [Example 92, benzo[b]thiophene-3-benzo[d]isoxazol-3-ylcarboxamide] | – | 55.98 |
| O=C(Nc1noc2c(F)cccc12)c1ccccc1Cl [Example 93, 2-chloro-N-(7-fluorobenzo[d]isoxazol-3-yl)benzamide] | 35.4 | – |
| CC(C)(C)c1ccc(C(=O)Nc2noc3c(F)cccc23)cc1 [Example 94, 4-tert-butyl-N-(7-fluorobenzo[d]isoxazol-3-yl)benzamide] | 30.8 | – |
| O=C(Nc1noc2c(F)cccc12)c1ccccc1 [Example 95, N-(7-fluorobenzo[d]isoxazol-3-yl)benzamide] | 45.8 | – |
| O=C(Nc1noc2c(F)cccc12)c1ccc(F)cc1 [Example 96, 4-fluoro-N-(7-fluorobenzo[d]isoxazol-3-yl)benzamide] | 30.5 | – |
| COc1ccccc1C(=O)Nc1noc2c(F)cccc12 [Example 98, N-(7-fluorobenzo[d]isoxazol-3-yl)-2-methoxybenzamide] | 32 | – |
| Cc1ccccc1C(=O)Nc1noc2c(F)cccc12 [Example 99, N-(7-fluorobenzo[d]isoxazol-3-yl)-2-methylbenzamide] | 43 | – |
| O=C(Nc1noc2cc(F)ccc12)c1cc(F)cc(F)c1 [Example 100, 3,5-difluoro-N-(6-fluorobenzo[d]isoxazol-3-yl)benzamide] | 33.3 | – |
| O=C(Nc1noc2cc(F)ccc12)c1cccc2ccccc12 [Example 101, naphthalene-1-(6-fluorobenzo[d]isoxazol-3-yl)carboxamide] | – | 48.99 |
| O=C(Nc1noc2cc(F)ccc12)C12CC3CC(CC(C3)C1)C2 [Example 102, adamantane-1-(6-fluorobenzo[d]isoxazol-3-yl)carboxamide] | – | 52.11 |
| O=C(Nc1noc2ccc(F)cc12)c1ccccc1Br [Example 103, 2-bromo-N-(5-fluorobenzo[d]isoxazol-3-yl)benzamide] | 41.2 | – |

| Compound | inhibition at 10 µM [%] | mGluR5 receptor inhibition of the 3[H]-MPEP binding in % (10 μM) [%] |
| --- | --- | --- |
| CC(C)(C)c1ccc(C(=O)Nc2noc3ccc(F)cc23)cc1 [Example 104, 4-tert-butyl-N-(5-fluorobenzo[d]isoxazol-3-yl)benzamide] | 44.6 | – |
| O=C(Nc1noc2ccc(F)cc12)c1ccc(F)cc1F [Example 105, 2,4-difluoro-N-(5-fluorobenzo[d]isoxazol-3-yl)benzamide] | 53.8 | – |
| O=C(Nc1noc2ccc(F)cc12)c1ccc2ccccc2c1 [Example 106, naphthalene-2-(5-fluorobenzo[d]isoxazol-3-yl)carboxamide] | – | 33.72 |
| CCCc1ccc(C(=O)Nc2noc3ccc(F)cc23)cc1 [Example 107, N-(5-fluorobenzo[d]isoxazol-3-yl)-4-propylbenzamide] | 42.1 | – |
| O=C(Nc1noc2cc(Cl)ccc12)c1ccccc1Cl [Example 108, 2-chloro-N-(6-chlorobenzo[d]isoxazol-3-yl)benzamide] | 34.7 | – |
| CC(C)(C)c1ccc(C(=O)Nc2noc3cc(Cl)ccc23)cc1 [Example 109, 4-tert-butyl-N-(6-chlorobenzo[d]isoxazol-3-yl)benzamide] | 35.2 | – |
| O=C(Nc1noc2cc(Cl)ccc12)c1ccc(F)cc1C(F)(F)F [Example 110, N-(6-chlorobenzo[d]isoxazol-3-yl)-4-fluoro-2-trifluoromethylbenzamide] | 36 | – |
| O=C(Nc1noc2cc(Cl)ccc12)c1cc(F)c(Cl)cc1Cl [Example 111, 2,4-dichloro-N-(6-chlorobenzo[d]isoxazol-3-yl)-5-fluorobenzamide] | 43 | – |
| CCCCC(CC)C(=O)Nc1noc2cc(Cl)ccc12 (stereo not drawn) [Example 112, N-(6-chlorobenzo[d]isoxazol-3-yl)-2-ethylhexanamide] | 35.1 | – |
| CCC(C)C(=O)Nc1noc2cc(Cl)ccc12 (stereo not drawn) [Example 113, N-(6-chlorobenzo[d]isoxazol-3-yl)-2-methylbutyramide] | 49.2 | – |
| O=C(Nc1noc2cc(Br)ccc12)c1ccccc1Cl [Example 114, N-(6-bromobenzo[d]isoxazol-3-yl)-2-chlorobenzamide] | 37.5 | – |
| O=C(Nc1noc2cc(Br)ccc12)c1ccc(Cl)c(Cl)c1 [Example 115, N-(6-bromobenzo[d]isoxazol-3-yl)-3,4-dichlorobenzamide] | 35.8 | – |
| O=C(Nc1noc2cc(Br)ccc12)c1cccs1 [Example 116, thiophene-2-(6-bromobenzo[d]isoxazol-3-yl)carboxamide] | – | 37.71 |
| CC(C)(C)CC(=O)Nc1noc2cc(Br)ccc12 [Example 117, N-(6-bromobenzo[d]isoxazol-3-yl)-3,3-dimethylbutyramide] | 30.8 | – |
| Cc1ccc2onc(NC(=O)c3ccccc3)c2c1 [Example 118, N-(5-methylbenzo[d]isoxazol-3-yl)benzamide] | 69 | – |
| Cc1ccc2onc(NC(=O)c3ccc(Br)cc3)c2c1 [Example 119, 4-bromo-N-(5-methylbenzo[d]isoxazol-3-yl)benzamide] | 37.9 | – |
| Cc1ccc2onc(NC(=O)c3ccccc3Cl)c2c1 [Example 120, 2-chloro-N-(5-methylbenzo[d]isoxazol-3-yl)benzamide] | 47.9 | – |

Further lines, results first:

| inhibition at 10 µM [%] | mGluR5 receptor inhibition of the 3[H]-MPEP binding in % (10 μM) [%] | Compound |
| --- | --- | --- |
| 32.2 | – | Cc1ccc2onc(NC(=O)c3ccc(F)cc3)c2c1 [Example 121, 4-fluoro-N-(5-methylbenzo[d]isoxazol-3-yl)benzamide] |
| 41 | – | Cc1ccc2onc(NC(=O)c3ccccc3F)c2c1 [Example 122, 2-fluoro-N-(5-methylbenzo[d]isoxazol-3-yl)benzamide] |
| – | 89.70 | Cc1cccc(C(=O)Nc2noc3ccc(C)cc23)c1 [Example 123, 3-methyl-N-(5-methylbenzo[d]isoxazol-3-yl)benzamide] |
| 43.5 | – | Cc1ccc2onc(NC(=O)c3ccc(C(C)(C)C)cc3)c2c1 [Example 124, 4-tert-butyl-N-(5-methylbenzo[d]isoxazol-3-yl)benzamide] |
| 40.6 | – | Cc1ccc2onc(NC(=O)c3ccccc3C)c2c1 [Example 125, 2-methyl-N-(5-methylbenzo[d]isoxazol-3-yl)benzamide] |
| 39.5 | – | Cc1ccc2onc(NC(=O)c3cccc(F)c3F)c2c1 [Example 126, 2,3-difluoro-N-(5-methylbenzo[d]isoxazol-3-yl)benzamide] |
| 43.2 | – | Cc1ccc2onc(NC(=O)c3ccc(F)cc3F)c2c1 [Example 127, 2,4-difluoro-N-(5-methylbenzo[d]isoxazol-3-yl)benzamide] |
| 33.1 | – | Cc1ccc2onc(NC(=O)c3cccnc3Cl)c2c1 [Example 128, 2-chloro-N-(5-methylbenzo[d]isoxazol-3-yl)nicotinamide] |
| – | 31.64 | CC(C)(C)CC(=O)Nc1noc2ccc(F)cc12 [Example 130, N-(5-fluorobenzo[d]isoxazol-3-yl)-3,3-dimethyl butyramide] |
| – | 42.52 | O=C(Nc1noc2ccc(F)cc12)c1ccc(F)cc1F [Example 131, 2,4-difluoro-N-(5-fluorobenzo[d]isoxazol-3-yl)benzamide] |
| – | 36.88 | Cc1cc(C(=O)Nc2noc3ccc(F)cc23)c(C)o1 [Example 132, 2,5-dimethylfuran-3-(5-fluorobenzo[d]isoxazol-3-yl)carboxamide] |
| 34.6 | – | O=C(Nc1noc2ccc(Br)cc12)c1cccc(F)c1F [Example 133, N-(5-bromobenzo[d]isoxazol-3-yl)-2,3-difluorobenzamide] |
| – | 43.11 | Cc1cc(C(=O)Nc2noc3ccc(Br)cc23)c(C)o1 [Example 134, 2,5-dimethylfuran-3-(5-bromobenzo[d]isoxazol-3-yl)carboxamide] |
| – | 40.00 | CCC(C)C(=O)Nc1noc2ccc(Br)cc12 (stereo not drawn) [Example 135, N-(5-bromobenzo[d]isoxazol-3-yl)-2-methyl butyramide] |
| 40.8 | – | O=C(Nc1noc2ccc(Br)cc12)c1c(F)cccc1F [Example 136, N-(5-bromobenzo[d]isoxazol-3-yl)-2,6-difluorobenzamide] |
| 31.2 | – | COc1ccc(C(=O)Nc2noc3ccc(Br)cc23)cc1OC [Example 137, N-(5-bromobenzo[d]isoxazol-3-yl)-3,4-dimethoxybenzamide] |

Source: patent publication US20080312301A1, “Substituted N-Benzo[D]Isoxazol-3-Yl-Amine Compounds as Inhibitors of Mglur5, Serotonin (5-Ht) and Noradrenaline Receptors, and Uses Thereof” (Gruenenthal GmbH, priority 2005, published 2008)
